Results on 29 molecules are retold here after US10874743B2, “IRAK degraders and uses thereof” (Kymera Therapeutics, Inc., priority 2017, dated 2020).

The target of the experiment is T1, IRAK4 (Homo sapiens, UniProt Q9NWZ3).
T1 sequence (Q9NWZ3 1-460): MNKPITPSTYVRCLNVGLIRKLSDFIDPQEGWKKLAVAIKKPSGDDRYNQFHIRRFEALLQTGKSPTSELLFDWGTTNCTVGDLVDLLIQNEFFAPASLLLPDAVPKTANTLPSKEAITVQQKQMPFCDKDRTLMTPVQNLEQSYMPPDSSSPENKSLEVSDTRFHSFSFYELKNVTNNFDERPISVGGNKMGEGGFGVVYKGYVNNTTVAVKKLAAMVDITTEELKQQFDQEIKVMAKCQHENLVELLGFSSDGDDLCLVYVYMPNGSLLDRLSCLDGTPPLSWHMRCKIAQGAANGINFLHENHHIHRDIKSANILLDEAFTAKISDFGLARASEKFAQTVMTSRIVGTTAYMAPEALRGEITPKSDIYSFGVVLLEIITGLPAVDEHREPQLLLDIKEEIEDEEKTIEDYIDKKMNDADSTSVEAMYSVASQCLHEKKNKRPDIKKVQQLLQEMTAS
The experiment can be described thus: OCI-LY-10 MSD assay for IRAK4 DC50. Format: cell-based. Details: endogenous in cells; host or cells: OCI-LY10. Particulars: OCI-LY10 cells, 4 hr incubation, concentration required to degrade 50% of protein. How it is done: A MSD assay was run to determine the concentration of compound required to degrade 50% of protein (DC50).
Day 1 • Compounds were reconstituted to 10 mM in stock solutions. The stock solutions were diluted to 5 mM and 45 μL of each dilution was transferred to a 384 pp-plate. A 3 fold, 8-point serial dilution was performed by transferring 15 μL of compound into 30 μL DMSO using Janus. • 20 nL of each compounds were added into each well of a 96-well plate (Corning3799). • OCI-Ly10 cells were seeded into the 96-well plate at 3.0*10e^5 cells/100 μL/well. • The cell plate was shaken at 720 rpm for 5 min and incubated for 4 hr. • The 100 μL of cells were transferred into the 96-PCR plate and spun down at high speed for 5 mins. • The supernatant was discarded and 100 μL of RIPA lysis buffer with proteinase inhibitors was added per well. The plate was then sealed and shaken at 600 rpm and 4° C. for about 20 min. • The plate was then spun down at high speed (about 3200 g) for 30 min and then frozen in a −80° C. fridge. • A bare MSD plate (L15XA-3) was coated with 2 μg/mL of capture antibody (mouse Anti-IRAK4 antibody [2H9], ab119942) in PBS to 40 μL/well and incubated overnight at 4° C.
Day 2 • The MSD coated plate was washed 3× (150 μL/well) with 1×TBST (CST #9997S). • The MSD plate was then blocked with 150 μL of blocking buffer [3% Blocker A (MSD, R93BA-4) in TBST]/well and shaken for 1 hr at R^† and 600 rpm. • The MSD plate was washed 3× (150 μL/well) with 1×TBST. The sample RIPA lysates were then added to the MSD plate (50 μL/well) and shaken for 1 hr at R^† and 600 rpm. • The MSD plate was washed 3× (150 μL/well) with 1×TBST and the primary detection antibody (Rabbit Anti-IRAK4 antibody [Y279], ab32511) was added to a final concentration of 1 μg/ml with 25 μL/well. The plate was then shaken for 1 hr at RT and 600 rpm. • The MSD plate was washed 3× (150 μL/well) with 1×TBST and the secondary detection antibody, SULFO-TAG anti-species antibody (Anti Rabbit Antibody (R32AB-5) MSD, R32AB-1) was added to a volume of 25 μL/well at a final concentration of 1 jag/ml. The plate was then shaken for 1 hr at RT and 600 rpm. • The MSD plate was then washed 3× (150 μL/well) with 1×TBST. • lx MSD reading buffer was then added (150 μL/well) and the plate was diluted with 4× water. (MSD, R92TC-2) • The MSD instrument was then read.
Data Analysis • The remaining activity was calculated following the formula below:
Calculate • The DC50 was calculated by fitting the Curve using Xlfit (v5.3.1.3), equation 201: Y=Bottom+(Top−Bottom)/(1+10^((Log IC50−X)*HillSlope))
OCI-LY-10 DC50 results. The letter codes for IRAK4 DC50 indicate the concentration of compound required to degrade 50% of protein: A (<0.05 μM), B (0.05-0.1 μM), C (0.1-0.5 μM), D (0.5-1.0 μM), and E (>1.0 μM).
For `NC(=O)c1nn(-c2ccc(C(=O)NCCOCCCOCCNc3cccc4c3C(=O)N(C3CCC(=O)NC3=O)C4=O)cc2)cc1NC(=O)c1coc(-c2ccnc(NCC3CC3)c2)n1` (centres unmarked) [I-213], the DC50 is less than 50 nM.
In the case of `Cn1cc(NC(=O)c2coc(-c3ccnc(NCC(F)(F)F)c3)n2)c(C(=O)NCCOCCOCCOCCOCCOCCNc2cccc3c2C(=O)N(C2CCC(=O)NC2=O)C3=O)n1` (centres unmarked) [I-214], the DC50 is more than 1000 nM.
The figure for `O=C1CCC(N2C(=O)c3cccc(NCCCCNCCCNC(=O)c4ccc(-n5cc(NC(=O)c6coc(-c7ccnc(NCC8CC8)c7)n6)c(C(F)(F)F)n5)cc4)c3C2=O)C(=O)N1` (centres unmarked) [I-218] is more than 1000 nM; for `O=C1CCC(n2c(=O)n(CCOCCOCCNC(=O)c3ccc(-n4cc(NC(=O)c5coc(-c6ccnc(NCC7CC7)c6)n5)c(C(F)F)n4)cc3)c3ccccc32)C(=O)N1` (centres unmarked) [I-251] it is less than 50 nM.
For the molecule `Cn1c(=O)n(C2CCC(=O)NC2=O)c2cccc(CCCOCCOCCNC(=O)c3ccc(-n4cc(NC(=O)c5coc(-c6ccnc(NCC7CC7)c6)n5)c(C(F)F)n4)cc3)c21` (centres unmarked) [I-253], the 50% degradation concentration (DC50) was less than 50 nM.
In the case of `O=C1CCC(N2C(=O)c3cccc(NCCOCCOCCNC(=O)c4ccc(-n5cc(NC(=O)c6coc(-c7ccnc(NCC(F)(F)F)c7)n6)c(C(F)F)n5)cc4)c3C2=O)C(=O)N1` (centres unmarked) [I-261] it was 100 to 500 nM.
`O=C1CCC(N2C(=O)c3cccc(NC4CCN(CCOCCNC(=O)c5ccc(-n6cc(NC(=O)c7coc(-c8ccnc(NCC9CC9)c8)n7)c(C(F)F)n6)cc5)CC4)c3C2=O)C(=O)N1` (centres unmarked) [I-268] gave a 50% degradation concentration (DC50) of less than 50 nM.
The figure for `O=C1CCC(N2C(=O)c3ccc(NC4CCN(CCOCCNC(=O)c5ccc(-n6cc(NC(=O)c7coc(-c8ccnc(NCC9CC9)c8)n7)c(C(F)F)n6)cc5)CC4)cc3C2=O)C(=O)N1` (centres unmarked) [I-271] is 100 to 500 nM; for `O=C1CCC(N2C(=O)c3cccc(N4CCN(CCOCCOCCNC(=O)c5ccc(-n6cc(NC(=O)c7coc(-c8ccnc(NCC9CC9)c8)n7)c(C(F)F)n6)cc5)CC4)c3C2=O)C(=O)N1` (centres unmarked) [I-273] it is 50 to 100 nM; for `O=C1CCC(N2C(=O)c3cccc(N4CCN(CCOCCNC(=O)c5ccc(-n6cc(NC(=O)c7coc(-c8ccnc(NCC9CC9)c8)n7)c(C(F)F)n6)cc5)CC4)c3C2=O)C(=O)N1` (centres unmarked) [I-274] it is 100 to 500 nM.
The figure for `Cn1c(=O)n(C2CCC(=O)NC2=O)c2cccc(CCCOCCOCCNC(=O)c3ccc(-n4cc(NC(=O)c5coc(-c6ccnc(NCC(F)(F)F)c6)n5)c(C(F)F)n4)cc3)c21` (centres unmarked) [I-280] is less than 50 nM.
In the case of `CC(C)(C)[C@H](NC(=O)COCCOCCOCCNc1cccc2c1C(=O)N(C1CCC(=O)NC1=O)C2=O)C(=O)N1C[C@H](OC(=O)[C@@H]2CCCN2)C[C@H]1C(=O)NCc1ccc(-n2cc(NC(=O)c3coc(-c4ccnc(NCC5CC5)c4)n3)c(C(F)F)n2)cc1` (stereo partly drawn) [I-286, [(3R,5S)-5-[[4-[4-[[2-[2-(cyclopropylmethylamino)-4-pyridyl]oxazole-4-carbonyl]amino]-3-(difluoromethyl)pyrazol-1-yl]phenyl]methylcarbamoyl]-1-[(2S)-2-[[2-[2-[2-[2-[[2-(2,6-dioxo-3-piperidyl)-1,3-dioxo-isoindolin-4-yl]amino]ethoxy]ethoxy]ethoxy]acetyl]amino]-3,3-dimethyl-butanoyl]pyrrolidin-3-yl](2S)-pyrrolidine-2-carboxylate] it was more than 1000 nM; in that of `O=C1CCC(N2C(=O)c3cccc(NCCOCCOCCOCC(=O)N4C[C@H](OC(=O)[C@@H]5CCCN5)C[C@H]4C(=O)NCc4ccc(-n5cc(NC(=O)c6coc(-c7ccnc(NCC8CC8)c7)n6)c(C(F)F)n5)cc4)c3C2=O)C(=O)N1` (some centres unmarked) [I-289], more than 1000 nM; in that of `Cn1cc(NC(=O)c2coc(-c3ccnc(NCC(F)(F)F)c3)n2)c(C(=O)NCCOCCOCCOCCNc2cccc3c2C(=O)N(C2CCC(=O)NC2=O)C3=O)n1` (centres unmarked) [I-292], more than 1000 nM.
`Cc1ncsc1-c1ccc(CNC(=O)[C@@H]2C[C@@H](O)CN2C(=O)[C@@H](NCCOCCOCCOCCNC(=O)C2CCC(n3cc(NC(=O)c4coc(-c5ccnc(NCC(F)(F)F)c5)n4)c(C(N)=O)n3)CC2)C(C)(C)C)cc1` (some centres unmarked) [I-293] showed a half-maximal degradation concentration (DC50) of more than 1000 nM.
In the case of `Cn1cc(NC(=O)c2coc(-c3ccnc(NCC(F)(F)F)c3)n2)c(C(=O)NCCCOCCCOCCCNc2cccc3c2C(=O)N(C2CCC(=O)NC2=O)C3=O)n1` (centres unmarked) [I-294] it was more than 1000 nM; in that of `Cc1ncsc1-c1ccc(CNC(=O)[C@@H]2C[C@@H](O)CN2C(=O)[C@@H](NCCOCCOCCOCCNC(=O)c2nn(C)cc2NC(=O)c2coc(-c3ccnc(NCC(F)(F)F)c3)n2)C(C)(C)C)cc1` [I-295], more than 1000 nM.
The figure for `COCC(=O)N[C@H](C(=O)N1Cc2cc(OCCOCCOCCOCCOCCNC(=O)c3ccc(-n4cc(NC(=O)c5coc(-c6ccnc(NCC7CC7)c6)n5)c(C(F)F)n4)cc3)ccc2CC1C(=O)N[C@@H]1CCCc2ccccc21)C(C)(C)C` (some centres unmarked) [I-296] is more than 1000 nM; for `Cc1ncsc1-c1ccc(CNC(=O)[C@@H]2C[C@@H](O)CN2C(=O)[C@@H](NC(=O)COCCOCCOCCOCCNC(=O)c2nn(C)cc2NC(=O)c2coc(-c3ccnc(NCC(F)(F)F)c3)n2)C(C)(C)C)cc1` [I-299] it is more than 1000 nM; for `Cn1cc(NC(=O)c2cocn2)c(C(=O)NCCOCCOCCOCCNc2cccc3c2C(=O)N(C2CCC(=O)NC2=O)C3=O)n1` (centres unmarked) [I-300] it is more than 1000 nM.
With `Cn1cc(NC(=O)c2coc(-c3ccncc3)n2)c(C(=O)NCCOCCOCCOCCNc2cccc3c2C(=O)N(C2CCC(=O)NC2=O)C3=O)n1` (centres unmarked) [I-301], the 50% degradation concentration (DC50) was more than 1000 nM.
The figure for `CN(CCOCCCc1cccc2c1C(=O)N(C1CCC(=O)NC1=O)C2=O)Cc1ccc(-n2cc(NC(=O)c3coc(-c4ccnc(NCC5CC5)c4)n3)c(C(N)=O)n2)cc1` (centres unmarked) [I-313] is less than 50 nM; for `O=C1CCC(N2C(=O)c3cccc(NC4CCN(CCOCCOCCNCc5ccc(-n6cc(NC(=O)c7coc(-c8ccnc(NCC9CC9)c8)n7)c(C(F)F)n6)cc5)CC4)c3C2=O)C(=O)N1` (centres unmarked) [I-334] it is 50 to 100 nM.
In the case of `O=C1CCC(N2Cc3c(NC4CCN(CCOCCOCCNCc5ccc(-n6cc(NC(=O)c7coc(-c8ccnc(NCC9CC9)c8)n7)c(C(F)F)n6)cc5)CC4)cccc3C2=O)C(=O)N1` (centres unmarked) [I-384] it was 500 to 1000 nM.
The figure for `O=C1CCC(N2C(=O)c3cccc(N4CCN(CCOCCNCc5ccc(-n6cc(NC(=O)c7coc(-c8ccnc(NCC9CC9)c8)n7)c(C(F)F)n6)cc5)CC4)c3C2=O)C(=O)N1` (centres unmarked) [I-390] is 100 to 500 nM.
With `O=C1CCC(N2C(=O)c3cccc(N4CCN(CCOCCOCCOCCNCc5ccc(-n6cc(NC(=O)c7coc(-c8ccnc(NCC9CC9)c8)n7)c(C(F)F)n6)cc5)CC4)c3C2=O)C(=O)N1` (centres unmarked) [I-391], the DC50 was in the range of 100 to 500 nM.
Consider `NC(=O)c1nn(-c2ccc(CNCCOCCOCCN3CCN(c4cccc5c4C(=O)N(C4CCC(=O)NC4=O)C5=O)CC3)cc2)cc1NC(=O)c1coc(-c2ccnc(NCC3CC3)c2)n1` (centres unmarked) [I-396], for which the DC50 is 50 to 100 nM.
In the case of `NC(=O)c1nn(-c2ccc(CNCCCOCCCOCCCNc3cccc4c3C(=O)N(C3CCC(=O)NC3=O)C4=O)cc2)cc1NC(=O)c1coc(-c2ccnc(NCC3CC3)c2)n1` (centres unmarked) [I-398] it was 100 to 500 nM; in that of `NC(=O)c1nn(-c2ccc(CNCCCOCCCNc3cccc4c3C(=O)N(C3CCC(=O)NC3=O)C4=O)cc2)cc1NC(=O)c1coc(-c2ccnc(NCC3CC3)c2)n1` (centres unmarked) [I-399], less than 50 nM.
